Read-outs that look alike come from different tables or passages of the source.
Tests used:
CSF1R = CSF1R (Homo sapiens, UniProt P07333); assay: KINOMEscan competition binding assay for CSF1R; set-up: DNA tag for qPCR (not a peptide); host or cells: E. coli/T7 phage or HEK-293; settings: for Kd: read-out: CSF1R kinase binding activity (Kd)
Procedure: KINOMEscan™ is based on a competition binding assay that quantitatively measures the ability of a compound to compete with an immobilized, active-site directed ligand. The assay is performed by combining three components: DNA-tagged kinase; immobilized ligand; and a test compound. The ability of the test compound to compete with the immobilized ligand is measured via quantitative PCR of the DNA tag.
E. coli were grown to log-phase and infected with T7 phage and incubated with shaking at 32° C. until lysis. The lysates were centrifuged and filtered to remove cell debris. The remaining kinases were produced in HEK-293 cells and subsequently tagged with DNA for qPCR detection. Streptavidin-coated magnetic beads were treated with biotinylated small molecule ligands for 30 minutes at room temperature to generate affinity resins for kinase assays. The liganded beads were blocked with excess biotin and washed with blocking buffer (SeaBlock (Pierce), 1% BSA, 0.05% Tween 20, 1 mM DTT) to remove unbound ligand and to reduce non-specific binding. Binding reactions were assembled by combining kinases, liganded affinity beads, and test compounds in 1× binding buffer (20% SeaBlock, 0.17×PBS, 0.05% Tween 20, 6 mM DTT). Test compounds were prepared as 111× stocks in 100% DMSO. Kds were determined using an 11-point 3-fold compound dilution series with three DMSO control points. All compounds for Kd measurements are distributed by acoustic transfer (non-contact dispensing) in 100% DMSO. The compounds were then diluted directly into the assays such that the final concentration of DMSO was 0.9%. In case of % inhibition, test compounds were prepared as 40× stocks in 100% DMSO and directly diluted into the assay. All reactions performed in polypropylene 384-well plate. Each was a final volume of 0.02 ml. The assay plates were incubated at room temperature with shaking for 1 hour and the affinity beads were washed with wash buffer (1×PBS, 0.05% Tween 20). The beads were then re-suspended in elution buffer (1×PBS, 0.05% Tween 20, 0.5 μM non-biotinylated affinity ligand) and incubated at room temperature with shaking for 30 minutes. The kinase concentration in the eluates was measured by qPCR.
The CSF1R kinase binding activity results are shown in tables 1 (Kd) and 2 (percent inhibition at a concentration of 0.1 uM of compound to be tested).
Binding constants (Kds) were calculated with a standard dose-response curve using the Hill equation: […]
The Hill Slope was set to −1.
Curves were fitted using a non-linear least square fit with the Levenberg-Marquardt algorithm.
Binding % inhibition were calculated with as below:
[formula] • negative control=DMSO (100% Ctrl) • positive control=control compound (0% Ctrl)

CSF1R (M-NFS-60 cells) = assay: Cell Titer-Glo viability assay using M-NFS-60 cells; assay type: cell-based; settings: Mus musculus, read-out: Cellular CSF1R activity by M-NFS-60 viability assay (IC50 activity range)
Procedure: M-NFS-60 cells were cultured in RPMI-1640 medium containing 10% FBS, 0.05 mM 2-Mercaptoethanol, penicillin (100 U/ml)/streptomycin ([…]) and supplemented with 62 ng/ml recombinant human M-CSF at 37° C./5% CO2. Aliquots of the cells were seeded into a 96-well plate (2×10^5 cells in 100 μl/well) and then incubated at 37° C./5% CO2 1 h. Dissolve compound in 100% DMSO to make 10 mM stock solutions (Aliquots stored in the Nitrogen Cabinet). Dilute 10 mM compounds solutions for 2-fold in 100% DMSO to get 5 mM solutions (10 μl+10 μl DMSO), and then make a 3-fold serial dilution (10 μl+20 μl DMSO) for 10 doses. For reference compounds: Dilute 10 mM compounds solutions for 20-fold in 100% DMSO to get 0.5 mM solutions (2 μl+38 μl DMSO), and then make a 3-fold serial dilution (10 μl+20 μl DMSO) for 8 doses. The 96-well plate was equilibrated at room temperature for 30 min. 50 μl of CellTiter-Glo® Reagent added to each well and mixed for 2 min on an orbital shaker to induce cell lysis. The 96-well plate was incubated at room temperature for 10 min to stabilize luminescent signal. Luminescent was measured […] by EnVison plate reader. Calculations and Formulas: The following calculations and formulas are used for data analysis using XL Fit software: The curve fitting was made using the Sigmoidal Dose-Response Model (Fit model, 205).

[1] = read-out: CSF1R kinase binding activity, Percent (%) inhibition
[2] = read-out: CSF1R kinase binding activity, Range

CSF1R, sequence (P07333 20-972): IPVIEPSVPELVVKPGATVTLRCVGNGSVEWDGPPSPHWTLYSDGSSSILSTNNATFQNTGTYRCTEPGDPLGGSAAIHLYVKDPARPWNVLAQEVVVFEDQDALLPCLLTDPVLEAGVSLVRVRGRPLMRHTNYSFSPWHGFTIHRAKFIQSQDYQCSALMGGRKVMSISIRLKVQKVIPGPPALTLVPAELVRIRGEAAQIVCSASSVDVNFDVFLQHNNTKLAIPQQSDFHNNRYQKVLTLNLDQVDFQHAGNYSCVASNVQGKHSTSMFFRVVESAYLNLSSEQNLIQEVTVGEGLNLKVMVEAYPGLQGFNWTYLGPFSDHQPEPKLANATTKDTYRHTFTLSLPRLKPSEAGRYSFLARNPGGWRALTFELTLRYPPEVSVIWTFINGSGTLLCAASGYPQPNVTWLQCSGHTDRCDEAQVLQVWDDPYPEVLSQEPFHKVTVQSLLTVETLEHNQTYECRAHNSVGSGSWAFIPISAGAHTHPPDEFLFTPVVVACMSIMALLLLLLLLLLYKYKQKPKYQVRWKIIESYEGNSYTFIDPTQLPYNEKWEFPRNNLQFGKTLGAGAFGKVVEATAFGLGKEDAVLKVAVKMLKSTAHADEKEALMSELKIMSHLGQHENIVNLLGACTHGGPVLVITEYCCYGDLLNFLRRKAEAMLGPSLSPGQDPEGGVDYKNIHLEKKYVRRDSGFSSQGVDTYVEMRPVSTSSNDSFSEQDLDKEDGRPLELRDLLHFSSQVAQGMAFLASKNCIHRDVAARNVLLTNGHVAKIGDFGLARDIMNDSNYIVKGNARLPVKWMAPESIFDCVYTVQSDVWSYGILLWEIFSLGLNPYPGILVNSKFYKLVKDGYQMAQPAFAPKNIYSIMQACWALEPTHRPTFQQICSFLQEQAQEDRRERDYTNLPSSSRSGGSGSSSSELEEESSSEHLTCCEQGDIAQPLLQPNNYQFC

| SMILES | inhibition at 0.1 µM (CSF1R; [1]) | inhibition at 0.1 µM (CSF1R; [2]) | IC50 (CSF1R (M-NFS-60 cells)) | Kd (CSF1R) |
| --- | --- | --- | --- | --- |
| CCCn1cc(OCCOC)c(C(=O)Nc2ccc(Oc3ccnc4cc(OC)c(OC)cc34)cn2)n1 [Compound 105] | 91% | ≥ 80% | < 1000 nM | – |
| COc1cc2nccc(Oc3ccc(NC(=O)c4nn(C5CCCC5)cc4OCC(F)(F)F)nn3)c2cc1OC [Compound 121] | 98% | ≥ 80% | < 1000 nM | – |
| COc1cc2nccc(Oc3ccc(NC(=O)c4nn(C5CC5)cc4OCC4CCC4)nc3)c2cc1OC [Compound 111] | 89% | ≥ 80% | 1000 to 10000 nM | – |
| COc1cc2nccc(Oc3ccc(NC(=O)c4nn(C5CCN(C)C5)cc4OCC(F)(F)F)cc3F)c2cc1OC (stereo not shown) [Compound 96] | 57% | 50 to 80% | 1000 to 10000 nM | – |
| COc1cc2nccc(Oc3ccc(NC(=O)c4nn(CC(C)O)cc4OCC(F)(F)F)cn3)c2cc1OC (stereo not shown) [Compound 136] | 23% | < 50% | 1000 to 10000 nM | – |
| CCCn1cc(OCC(F)F)c(C(=O)Nc2ccc(Oc3ccnc4cc(OC)c(OC)cc34)cn2)n1 [Compound 12] | 98% | ≥ 80% | < 1000 nM | < 100 nM |
| COc1cc2nccc(Oc3ccc(NC(=O)c4nn(C)cc4OCC(F)(F)F)nn3)c2cc1OC [Compound 102] | 87% | ≥ 80% | 1000 to 10000 nM | – |
| COCCOc1cn(C2CC2)nc1C(=O)Nc1ccc(Oc2ccnc3cc(OC)c(OC)cc23)cn1 [Compound 107] | 90% | ≥ 80% | 1000 to 10000 nM | – |
| CNCCn1cc(OCC(F)(F)F)c(C(=O)Nc2ccc(Oc3ccnc4cc(OC)c(OC)cc34)cc2F)n1 [Compound 154] | 47% | < 50% | 1000 to 10000 nM | – |
| COc1cc2nccc(Oc3ccc(NC(=O)c4nn(CC(C)O)cc4OC(C)C)nc3)c2cc1OC (stereo not shown) [Compound 151] | 97% | ≥ 80% | < 1000 nM | – |
| COc1cc2nccc(Oc3ccc(NC(=O)c4nn(CCOC5CC5)cc4OCC(F)(F)F)nc3)c2cc1OC [Compound 153] | 95% | ≥ 80% | < 1000 nM | – |
| COc1cc2nccc(Oc3ccc(NC(=O)c4nn(CC5COC5)cc4OCC(F)(F)F)nn3)c2cc1OC [Compound 123] | 72% | 50 to 80% | 1000 to 10000 nM | – |
| CCn1cc(OCC2CCC2)c(C(=O)Nc2ccc(Oc3ccnc4cc(OC)c(OC)cc34)cn2)n1 [Compound 8] | 94% | ≥ 80% | < 1000 nM | < 100 nM |
| COc1cc2nccc(Oc3ccc(NC(=O)c4nn(C5CC5)cc4OCC4CNC4)nc3)c2cc1OC [Compound 144] | 73% | 50 to 80% | ≥ 10000 nM | – |
| CCCn1cc(OCC2COC2)c(C(=O)Nc2ccc(Oc3ccnc4cc(OC)c(OC)cc34)cn2)n1 [Compound 106] | 95% | ≥ 80% | < 1000 nM | – |
| COc1cc2nccc(Oc3ccc(NC(=O)c4nn(CCN(C)C)cc4OCC(F)(F)F)nc3)c2cc1OC [Compound 9] | 92% | ≥ 80% | < 1000 nM | < 100 nM |
| CCn1cc(OC(C)C)c(C(=O)Nc2ccc(Oc3ccnc4cc(OC)c(OC)cc34)cn2)n1 [Compound 6] | 97% | ≥ 80% | < 1000 nM | < 100 nM |

— patent publication US12162858B2, “Quinoline derivatives as inhibitors of AXL/MER RTK and CSF1R” (QURIENT CO., LTD., priority 2018, dated 2024)
